Test results as given in ChEMBL document CHEMBL1124969, “GABA agonists and uptake inhibitors. Synthesis, absolute stereochemistry, and enantioselectivity of (R)-(-)- and (S)-(+)-homo-beta-proline” (J Med Chem, 1990).

How the values were obtained:
GABA B receptor = GABA B receptor (Rattus norvegicus, UniProt O88871+Q9Z0U4); assay: In vitro binding affinity against Gamma-aminobutyric acid type B receptor in rat brain synaptic membranes at pH 7.4; assay type: cell membranes
[1] = target: GABA-A receptor; anion channel; assay: In vitro binding affinity against Gamma-aminobutyric acid A receptor in rat brain synaptic membranes at pH 7.1; assay type: cell membranes

Sequence of GABA B receptor (Q9Z0U4 whole entry): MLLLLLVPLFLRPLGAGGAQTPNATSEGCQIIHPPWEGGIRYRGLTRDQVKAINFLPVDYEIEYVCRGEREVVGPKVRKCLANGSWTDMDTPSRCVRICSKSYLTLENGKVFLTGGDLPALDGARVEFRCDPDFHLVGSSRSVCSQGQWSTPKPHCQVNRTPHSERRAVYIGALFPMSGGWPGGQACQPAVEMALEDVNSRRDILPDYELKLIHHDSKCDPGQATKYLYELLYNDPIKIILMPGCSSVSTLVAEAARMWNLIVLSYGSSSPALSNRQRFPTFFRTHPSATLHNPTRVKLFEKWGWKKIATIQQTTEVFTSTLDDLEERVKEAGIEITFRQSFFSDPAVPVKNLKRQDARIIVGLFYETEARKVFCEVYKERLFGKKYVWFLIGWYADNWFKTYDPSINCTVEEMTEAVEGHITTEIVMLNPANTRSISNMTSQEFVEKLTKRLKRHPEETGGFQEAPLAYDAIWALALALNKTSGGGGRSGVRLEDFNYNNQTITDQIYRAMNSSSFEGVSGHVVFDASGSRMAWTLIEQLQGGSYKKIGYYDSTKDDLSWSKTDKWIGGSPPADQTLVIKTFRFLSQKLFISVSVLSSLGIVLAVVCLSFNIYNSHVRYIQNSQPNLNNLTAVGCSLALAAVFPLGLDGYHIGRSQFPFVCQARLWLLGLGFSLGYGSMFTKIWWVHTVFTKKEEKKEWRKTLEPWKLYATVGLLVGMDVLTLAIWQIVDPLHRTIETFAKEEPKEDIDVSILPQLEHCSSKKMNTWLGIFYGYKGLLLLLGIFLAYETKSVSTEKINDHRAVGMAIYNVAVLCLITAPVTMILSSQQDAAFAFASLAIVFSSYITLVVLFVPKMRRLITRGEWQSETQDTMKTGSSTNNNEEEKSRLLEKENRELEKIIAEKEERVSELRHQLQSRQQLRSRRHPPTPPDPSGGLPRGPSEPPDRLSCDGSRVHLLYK
Sequence of GABA B receptor (O88871 whole entry): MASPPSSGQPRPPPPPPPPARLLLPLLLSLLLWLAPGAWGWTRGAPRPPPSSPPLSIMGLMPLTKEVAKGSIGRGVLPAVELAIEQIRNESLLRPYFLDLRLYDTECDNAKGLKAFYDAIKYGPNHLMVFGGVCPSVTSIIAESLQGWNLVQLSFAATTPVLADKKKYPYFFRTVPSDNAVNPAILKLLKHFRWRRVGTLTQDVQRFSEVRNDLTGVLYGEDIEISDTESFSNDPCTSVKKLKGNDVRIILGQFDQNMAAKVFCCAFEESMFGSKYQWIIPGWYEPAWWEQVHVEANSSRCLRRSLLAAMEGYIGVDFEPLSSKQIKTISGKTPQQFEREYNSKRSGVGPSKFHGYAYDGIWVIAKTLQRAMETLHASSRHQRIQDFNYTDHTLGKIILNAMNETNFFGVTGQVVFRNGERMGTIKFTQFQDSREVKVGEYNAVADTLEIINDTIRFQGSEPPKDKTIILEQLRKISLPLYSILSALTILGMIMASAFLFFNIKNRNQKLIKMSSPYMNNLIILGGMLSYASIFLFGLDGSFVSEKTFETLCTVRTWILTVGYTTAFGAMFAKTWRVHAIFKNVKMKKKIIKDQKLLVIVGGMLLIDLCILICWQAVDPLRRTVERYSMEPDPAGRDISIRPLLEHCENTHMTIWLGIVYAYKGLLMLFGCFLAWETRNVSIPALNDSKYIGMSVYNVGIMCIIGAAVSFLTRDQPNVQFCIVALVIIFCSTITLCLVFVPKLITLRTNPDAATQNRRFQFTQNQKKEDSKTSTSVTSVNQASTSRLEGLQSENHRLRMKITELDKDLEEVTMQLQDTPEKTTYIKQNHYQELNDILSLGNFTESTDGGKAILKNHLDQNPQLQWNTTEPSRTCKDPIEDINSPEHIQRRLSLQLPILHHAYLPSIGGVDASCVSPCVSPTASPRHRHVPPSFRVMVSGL

Structure (SMILES) | IC50 (GABA B receptor) | IC50 [1]
O=C(O)C[C@H]1CCNC1 | > 100 µM | 70 nM
O=C(O)CC1CCNC1 (racemic) | 14.1 µM | 200 nM
O=C(O)C[C@@H]1CCNC1 | 7.8 µM | 900 nM
